US5366983A, “Use of quaternary ammonium compounds to remove salmonella contamination from meat products” (The Board of Trustees of The University of Arkansas, priority 1992, dated 1994)
Values joined by “and” are separate entries in the source; they are usually repeats but may differ in a detail not shown here. Equal values may be shown once. Read-outs that look alike come from different tables or passages of the source.

How the values were obtained:
[1] = system: Salmonella typhimurium TA98; assay: Salmonella reversion assay, TA98
Description: (§1) Test strains TA98 and TA100 were obtained from Bruce N. Ames (University of California, Berkley, Calif.). Mutagenicities were determined both in the absence of and in the presence of a mammalian liver S9 activating system. S9 is the 9000×g supernatant prepared from liver homogenates from Aroclor 1254 stimulated male Sprague Dawley rats. The S9 was purchased from Molecular Toxicology, Inc. (Anapolis, Md.).
(§2) Bacterial broth cultures were grown overnight at 37° with shaking in Oxoid Broth #2. For assays in the absence of S9, a 0.5 ml aliquot of 100 mM Sodium Phosphate Buffer, pH 7.4, was added to sterile 13×100 mm capped culture tubes. For assays in the presence of S9, a 0.5 ml aliquot of 10% S9 mix was added. The S9 mix consisted of 8 mM magnesium chloride, 33 mM potassium chloride, 5 mM glucose-6-phosphate, 4 mM NADP, 100 mM sodium phosphate, pH 7.4 and S9 in a concentration of approximately 1.46 mg protein/ml.
(§3) The culture tubes were placed in an ice bath and 0.1 ml of the bacterial suspension and 0.1 ml of a DMSO solution of the test compound were added. The mixture was vortexed gently and incubated at 37° for 20 minutes with shaking in a water bath. Molten top agar (2.0 ml) containing 0.5 mM histidine HCl and 0.5 mM biotin were added, and the mixture was vortexed gently and poured onto a minimal glucose plate. After allowing the agar to solidify, the plates were inverted and placed in a 37° incubator in the dark for 48 hours. The revertant (mutant) colonies were counted and the background lawn was examined on all plates. A response that was two times that of the DMSO solvent control was considered a positive response.

[2] = system: Salmonella typhimurium TA100; assay: Salmonella reversion assay, TA100
Description: as §1, §2, §3

[3] = system: Salmonella typhimurium ATCC 14028
Description: Salmonella typhimurium ATCC 14028 was used for these studies and prepared as follows. A 16 hour culture in nutrient broth (BBL) was centrifuged at 15,000 rpm for 10 minutes at 4° C. The deposit was washed once with 0.04 M potassium phosphate buffer (PPB) at pH 7.0 and resuspended in fresh PPB to contain 1-2×10^9 bacteria/ml. Samples (1.0 ml) of this suspension were added into a 1.8 ml Eppendorff vial and centrifuged at 14,000 rpm for 4 minutes. The pellets were first suspended in 1.0 ml of PPB or 1.0 ml of an appropriate concentration of test chemical solution, and then centrifuged and washed with the buffer under the same conditions. After washing, the samples of bacterial suspensions were appropriately diluted in PPB. Duplicate 0.05 ml samples were withdrawn and immediately added onto nutrient agar plates. Colonies were counted after 24 hours incubation at 37° C.

[4] = system: Salmonella typhimurium on chicken skin; assay: Prevention of attachment of Salmonella on excised chicken skin (Table F5)
Description: To determine the ability of surfactants to inhibit attachment or produce detachment of Salmonella, the following experiment was conducted. A hole was bored into the bottom of a 150 ml specimen cup. Chicken skin was excised from a drum stick and then placed over the cap of the specimen cup, and then the cap was screwed on. S. typhimurium was diluted 1:5000 with PBS or a surfactant. The surfactants were diluted appropriately. The skin was then inoculated with the solution containing the S. typhimurium and the surfactant for 30 minutes at room temperature.
Following incubation, the skin was washed. The rinse water was diluted appropriately in PBS and then plated onto XLD pour plates. The S. typhimurium was counted and reported as CFU/ml. The skin was swabbed so as to remove any remaining S. typhimurium using a nitroellulose lift and the CFU's/ml on the lift were also counted.

CCCCCCCCCCCCCCCC[n+]1ccccc1 [CPC, cetylpyridinium chloride]
Revertants/plate ([1]; TA98, +S9, 1 μg/plate): 25 ± 2 Revertants/plate | Revertants/plate ([1]; TA98, +S9, 5 μg/plate): 28 ± 1 Revertants/plate | Revertants/plate ([1]; TA98, +S9, 10 μg/plate): 25 ± 3 Revertants/plate | Revertants/plate ([1]; TA98, +S9, 20 μg/plate): 28 ± 2 Revertants/plate | Revertants/plate ([1]; TA98, +S9, 40 μg/plate): 30 ± 1 Revertants/plate | Revertants/plate ([1]; TA98, +S9, 50 μg/plate): 35 ± 6 Revertants/plate | Revertants/plate ([1]; TA98, -S9, 1 μg/plate): 24 ± 3 Revertants/plate | Revertants/plate ([1]; TA98, -S9, 5 μg/plate): 18 ± 4 Revertants/plate | mutagenicity (in words) ([1]; TA98, absence of S9, low concentrations): nonmutagenic | mutagenicity and cytotoxicity (in words) ([1]; TA98, presence of S9): neither mutagenic nor cytotoxic | Revertants/plate ([2]; TA100, +S9, 5 μg/plate): 129 ± 14 Revertants/plate | Revertants/plate ([2]; TA100, +S9, 10 μg/plate): 136 ± 11 Revertants/plate | Revertants/plate ([2]; TA100, +S9, 20 μg/plate): 126 ± 14 Revertants/plate | Revertants/plate ([2]; TA100, +S9, 40 μg/plate): 125 ± 5 Revertants/plate | Revertants/plate ([2]; TA100, +S9, 50 μg/plate): 126 ± 10 Revertants/plate | Revertants/plate ([2]; TA100, -S9, 1 μg/plate): 98 ± 5 Revertants/plate | Revertants/plate ([2]; TA100, -S9, 5 μg/plate): 133 ± 5 Revertants/plate | Revertants/plate ([2]; TA100, -S9, 10 μg/plate): 130 ± 9 Revertants/plate | mutagenicity (in words) ([2]; TA100, absence of S9, low concentrations): nonmutagenic | mutagenicity and cytotoxicity (in words) ([2]; TA100, presence of S9): neither mutagenic nor cytotoxic | bacterial viability ([3]; CPC 10 ug/ml + 0.0625% Na2-EDTA): 6.21 ± 0.75 × 10^8 CFU/ml | bacterial viability ([3]; CPC 10 ug/ml + 0.125% Na2-EDTA): 6.24 ± 0.79 × 10^8 CFU/ml | bacterial viability ([3]; CPC 10 ug/ml + 0.5% Na2-EDTA): 5.79 ± 0.1 × 10^8 CFU/ml | bacterial viability ([3]; CPC 10 ug/ml, no chelating agent): 6.08 ± 0.6 × 10^8 CFU/ml | bacterial viability ([3]; CPC 17 ug/ml + 0.125% Na2-EDTA): 1.52 ± 0.42 × 10^7 CFU/ml | bacterial viability ([3]; CPC 17 ug/ml + 0.5% Na2-EDTA): 4.8 ± 0.42 × 10^6 CFU/ml | bacterial viability ([3]; CPC 17 ug/ml, no chelating agent): 7.25 ± 0.1 × 10^7 CFU/ml | bacterial viability ([3]; CPC 20 ug/ml + 0.25% EGTA): 3.01 ± 0.44 CFU/ml | bacterial viability ([3]; CPC 20 ug/ml + 1% EGTA): 2.64 ± 0.32 CFU/ml | bacterial viability ([3]; CPC 30 ug/ml + 0.25% EGTA): 85 ± 65 CFU/ml | bacterial viability ([3]; CPC 30 ug/ml + 0.25% Na2-EDTA): 20 ± 13 CFU/ml | bacterial viability ([3]; CPC 30 ug/ml, no chelating agent): 117 ± 189 CFU/ml and 82 ± 73 CFU/ml | bacterial viability ([3]; CPC 40 ug/ml + 1% EGTA): 0 CFU/ml | bacterial viability ([3]; CPC 40 ug/ml, no chelating agent): 8 ± 14 CFU/ml | decrease in cell viability ([3]; CPC and Na2-EDTA used together): 2.5 fold | log reduction at 20 µg/mL ([3]; Salmonella enterica, read-out: decrease in CFU/ml): 1.5 | CFU/ml on XLD agar [4]: 20 | Nitrocellulose lift (# of colonies) ([4]; skin, 30 minutes at room temperature): 4 # of colonies
